According to patent publication US9796711B2, “Substituted pyrazolo[3,4-b]pyridin-6-carboxylic acids and method of use” (AbbVie S.àr.l., priority 2015, dated 2017):

Key:
[1] = target: T1, ΔF508-CFTR (Homo sapiens, UniProt P13569, DEL508-508); experiment: CFTR cell surface levels using HRP-tagged ΔF508-CFTR expressing CFBE cells, in the presence of a co-corrector; format: cell-based; settings: HRP-tagged ΔF508-CFTR expressing CFBE cells, in the presence of 3 μM co-corrector; for EC50: read-out: EC50
T1 construct: host or cells: CFBE41o-, doxycycline-inducible
Method in brief: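 Cells were seeded with 0.5 μg/mL doxycycline and held 68 h at 37 °C. Test compounds plus 3 μM co-corrector (final 0.1% DMSO) were then added for 20 h at 33 °C. Washed cells received HRP substrate, and luminescence was normalized between DMSO and 3 μM co-corrector controls.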

[2] = target: T1, ΔF508-CFTR; experiment: CFTR cell surface levels using HRP-tagged ΔF508-CFTR expressing CFBE cells, intrinsic corrector capacity; format: cell-based; settings: HRP-tagged ΔF508-CFTR expressing CFBE cells, intrinsic corrector capacity (no co-corrector), 33° C., 20 hours; for EC50: read-out: EC50
Method in brief: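 Here the cells express ΔF508-CFTR with horseradish peroxidase inserted in extracellular loop 4, so only rescued channel at the surface gives luminescent signal. Compounds act on their own, 20 h at the reduced temperature of 33 °C; values are percent activity relative to DMSO and a 3 μM corrector.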

T1 sequence (P13569 with tags, fused parts or gaps DEL508-508): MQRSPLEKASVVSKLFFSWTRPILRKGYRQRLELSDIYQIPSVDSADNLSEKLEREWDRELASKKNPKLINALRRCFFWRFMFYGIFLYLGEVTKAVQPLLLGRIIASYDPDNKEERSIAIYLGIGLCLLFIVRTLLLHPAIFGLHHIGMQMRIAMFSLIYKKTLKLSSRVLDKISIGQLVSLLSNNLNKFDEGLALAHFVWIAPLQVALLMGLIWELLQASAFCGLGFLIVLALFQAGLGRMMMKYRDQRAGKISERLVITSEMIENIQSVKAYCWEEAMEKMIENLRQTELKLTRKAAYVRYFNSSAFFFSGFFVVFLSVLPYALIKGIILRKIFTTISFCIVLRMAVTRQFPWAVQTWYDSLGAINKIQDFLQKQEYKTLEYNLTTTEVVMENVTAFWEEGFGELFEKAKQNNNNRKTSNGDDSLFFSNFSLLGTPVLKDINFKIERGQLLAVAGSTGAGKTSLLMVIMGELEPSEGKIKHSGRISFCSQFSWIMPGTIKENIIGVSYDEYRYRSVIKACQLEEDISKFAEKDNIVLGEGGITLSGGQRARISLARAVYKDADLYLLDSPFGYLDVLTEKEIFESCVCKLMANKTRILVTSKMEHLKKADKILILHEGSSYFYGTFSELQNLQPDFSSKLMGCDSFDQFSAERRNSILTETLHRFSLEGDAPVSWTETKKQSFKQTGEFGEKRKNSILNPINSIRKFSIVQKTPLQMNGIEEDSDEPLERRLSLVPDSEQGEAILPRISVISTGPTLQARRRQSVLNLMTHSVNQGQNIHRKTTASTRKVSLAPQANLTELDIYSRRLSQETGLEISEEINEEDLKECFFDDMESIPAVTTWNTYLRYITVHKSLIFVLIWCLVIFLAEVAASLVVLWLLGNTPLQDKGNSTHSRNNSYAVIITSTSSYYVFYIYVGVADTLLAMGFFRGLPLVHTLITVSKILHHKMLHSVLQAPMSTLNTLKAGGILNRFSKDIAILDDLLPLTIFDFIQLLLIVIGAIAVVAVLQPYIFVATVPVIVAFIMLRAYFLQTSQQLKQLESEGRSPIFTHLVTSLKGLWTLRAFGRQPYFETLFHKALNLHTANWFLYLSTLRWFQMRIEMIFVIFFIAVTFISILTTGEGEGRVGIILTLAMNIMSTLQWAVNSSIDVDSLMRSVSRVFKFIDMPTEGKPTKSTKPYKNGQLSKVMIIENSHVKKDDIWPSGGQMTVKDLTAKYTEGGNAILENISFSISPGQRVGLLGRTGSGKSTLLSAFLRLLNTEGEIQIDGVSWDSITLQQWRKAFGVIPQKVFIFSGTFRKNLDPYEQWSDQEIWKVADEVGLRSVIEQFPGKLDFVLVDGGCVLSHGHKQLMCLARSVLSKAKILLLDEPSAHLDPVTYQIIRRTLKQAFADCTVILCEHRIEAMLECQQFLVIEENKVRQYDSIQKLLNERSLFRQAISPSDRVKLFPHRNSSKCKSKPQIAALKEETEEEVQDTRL

SMILES	% Activation [1]	EC50 [1]	% Activation [2]	EC50 [2]
CC(C)c1nn(-c2ccc(F)cc2)c2nc(C(=O)O)cc(N3CCCN(C4CCC4)CC3)c12 [compound 767, 4-(4-cyclobutyl-1,4-diazepan-1-yl)-1-(4-fluorophenyl)-3-(propan-2-yl)-1H-pyrazolo[3,4-b]pyridine-6-carboxylic acid]	210.1%	1670 nM	59.96%	1670 nM
CCCCN1CCCN(c2cc(C(=O)O)nc3c2c(C(C)C)nn3-c2ccc(F)cc2)CC1 [compound 768, 4-(4-butyl-1,4-diazepan-1-yl)-1-(4-fluorophenyl)-3-(propan-2-yl)-1H-pyrazolo[3,4-b]pyridine-6-carboxylic acid]	256.5%	1670 nM	79.69%	1580 nM
CC(C)c1nn(-c2ccc(F)cc2)c2nc(C(=O)O)cc(N3CCCN(C)CC3)c12 [compound 769, 1-(4-fluorophenyl)-4-(4-methyl-1,4-diazepan-1-yl)-3-(propan-2-yl)-1H-pyrazolo[3,4-b]pyridine-6-carboxylic acid]	157.2%	1580 nM	19.25%	5000 nM
CC(C)c1nn(-c2ccc(F)cc2)c2nc(C(=O)O)cc(N3CCN4CCC[C@@H]4C3)c12 [compound 770, 1-(4-fluorophenyl)-4-[(8aR)-hexahydropyrrolo[1,2-a]pyrazin-2(1H)-yl]-3-(propan-2-yl)-1H-pyrazolo[3,4-b]pyridine-6-carboxylic acid]	234.5%	900 nM	85.33%	1670 nM
CC(=O)N1CCN(c2cc(C(=O)O)nc3c2c(C(C)C)nn3-c2ccc(F)cc2)CC1 [compound 771, 4-(4-acetylpiperazin-1-yl)-1-(4-fluorophenyl)-3-(propan-2-yl)-1H-pyrazolo[3,4-b]pyridine-6-carboxylic acid]	290.8%	1670 nM	94.91%	1670 nM
CCN1CCN(c2cc(C(=O)O)nc3c2c(C(C)C)nn3-c2ccc(F)cc2)CC1 [compound 772, 4-(4-ethylpiperazin-1-yl)-1-(4-fluorophenyl)-3-(propan-2-yl)-1H-pyrazolo[3,4-b]pyridine-6-carboxylic acid]	226.6%	1360 nM	53.82%	1670 nM
CC(C)c1nn(-c2ccc(F)cc2)c2nc(C(=O)O)cc(N3CCN(CCO)CC3)c12 [compound 773, 1-(4-fluorophenyl)-4-[4-(2-hydroxyethyl)piperazin-1-yl]-3-(propan-2-yl)-1H-pyrazolo[3,4-b]pyridine-6-carboxylic acid]	141.8%	5000 nM	16.13%	5000 nM
CC(C)c1nn(-c2ccc(F)cc2)c2nc(C(=O)O)cc(N3CCN(C(=O)N(C)C)CC3)c12 [compound 774, 4-[4-(dimethylcarbamoyl)piperazin-1-yl]-1-(4-fluorophenyl)-3-(propan-2-yl)-1H-pyrazolo[3,4-b]pyridine-6-carboxylic acid]	375.6%	1670 nM	163%	1670 nM
CCOCC(=O)N1CCN(c2cc(C(=O)O)nc3c2c(C(C)C)nn3-c2ccc(F)cc2)CC1 [compound 775, 4-[4-(ethoxyacetyl)piperazin-1-yl]-1-(4-fluorophenyl)-3-(propan-2-yl)-1H-pyrazolo[3,4-b]pyridine-6-carboxylic acid]	262.4%	1670 nM	93.07%	1670 nM
COCCCN1CCN(c2cc(C(=O)O)nc3c2c(C(C)C)nn3-c2ccc(F)cc2)CC1 [compound 776, 1-(4-fluorophenyl)-4-[4-(3-methoxypropyl)piperazin-1-yl]-3-(propan-2-yl)-1H-pyrazolo[3,4-b]pyridine-6-carboxylic acid]	261.4%	531 nM	113.2%	1670 nM
CCCN1CCN(c2cc(C(=O)O)nc3c2c(C(C)C)nn3-c2ccc(F)cc2)CC1 [compound 777, 1-(4-fluorophenyl)-3-(propan-2-yl)-4-(4-propylpiperazin-1-yl)-1H-pyrazolo[3,4-b]pyridine-6-carboxylic acid]	254.9%	955 nM	95%	1670 nM
CC(C)c1nn(-c2ccc(F)cc2)c2nc(C(=O)O)cc(N3CCN(CCOCCO)CC3)c12 [compound 778, 1-(4-fluorophenyl)-4-{4-[2-(2-hydroxyethoxy)ethyl]piperazin-1-yl}-3-(propan-2-yl)-1H-pyrazolo[3,4-b]pyridine-6-carboxylic acid]	149%	1670 nM	9.442%	5000 nM
CC(C)c1nn(-c2ccc(F)cc2)c2nc(C(=O)O)cc(N3CCN(CCC(=O)N4CCCN(C)CC4)CC3)c12 [compound 779, 1-(4-fluorophenyl)-4-{4-[3-(4-methyl-1,4-diazepan-1-yl)-3-oxopropyl]piperazin-1-yl}-3-(propan-2-yl)-1H-pyrazolo[3,4-b]pyridine-6-carboxylic acid]	121.2%	5000 nM	6.923%	5000 nM
CC(C)c1nn(-c2ccc(F)cc2)c2nc(C(=O)O)cc(N3CCC(CC4CCCCC4)CC3)c12 [compound 780, 4-[4-(cyclohexylmethyl)piperidin-1-yl]-1-(4-fluorophenyl)-3-(propan-2-yl)-1H-pyrazolo[3,4-b]pyridine-6-carboxylic acid]	429.5%	124 nM	233.5%	249 nM
CC(C)c1nn(-c2ccc(F)cc2)c2nc(C(=O)O)cc(N3CCC4(CCN(C)CC4)CC3)c12 [compound 781, 1-(4-fluorophenyl)-4-(9-methyl-3,9-diazaspiro[5.5]undecan-3-yl)-3-(propan-2-yl)-1H-pyrazolo[3,4-b]pyridine-6-carboxylic acid]	368.7%	1560 nM	154%	1670 nM
CC(C)c1nn(-c2ccc(F)cc2)c2nc(C(=O)O)cc(N3CCC4(CC3)OCCO4)c12 [compound 782, 4-(1,4-dioxa-8-azaspiro[4.5]decan-8-yl)-1-(4-fluorophenyl)-3-(propan-2-yl)-1H-pyrazolo[3,4-b]pyridine-6-carboxylic acid]	345.2%	272 nM	174.4%	673 nM
CC(C)c1nn(-c2ccc(F)cc2)c2nc(C(=O)O)cc(N3CCC[C@@H](O)C3)c12 [compound 783, 1-(4-fluorophenyl)-4-[(3R)-3-hydroxypiperidin-1-yl]-3-(propan-2-yl)-1H-pyrazolo[3,4-b]pyridine-6-carboxylic acid]	283.6%	1670 nM	95.05%	1670 nM
CC(C)c1nn(-c2ccc(F)cc2)c2nc(C(=O)O)cc(N3CCC(C)(N4CCCCC4)CC3)c12 [compound 784, 1-(4-fluorophenyl)-4-(4′-methyl [1,4′-bipiperidin]-1′-yl)-3-(propan-2-yl)-1H-pyrazolo[3,4-b]pyridine-6-carboxylic acid]	225.6%	1670 nM	38.94%	1220 nM
CC(C)c1nn(-c2ccc(F)cc2)c2nc(C(=O)O)cc(N3CCC(CCN4CCN(C)CC4)CC3)c12 [compound 785, 1-(4-fluorophenyl)-4-{4-[2-(4-methylpiperazin-1-yl)ethyl]piperidin-1-yl}-3-(propan-2-yl)-1H-pyrazolo[3,4-b]pyridine-6-carboxylic acid]	482.8%	558 nM	264.9%	622 nM
CC(C)c1nn(-c2ccc(F)cc2)c2nc(C(=O)O)cc(N3CC[C@@H](N4CCCCC4)C3)c12 [compound 786, 1-(4-fluorophenyl)-4-[(3R)-3-(piperidin-1-yl)pyrrolidin-1-yl]-3-(propan-2-yl)-1H-pyrazolo[3,4-b]pyridine-6-carboxylic acid]	221.6%	907 nM	67.03%	1160 nM
CCN(CC)C1CCN(c2cc(C(=O)O)nc3c2c(C(C)C)nn3-c2ccc(F)cc2)CC1 [compound 787, 4-[4-(diethylamino)piperidin-1-yl]-1-(4-fluorophenyl)-3-(propan-2-yl)-1H-pyrazolo[3,4-b]pyridine-6-carboxylic acid]	309.9%	1300 nM	121.5%	771 nM
CC(C)c1nn(-c2ccc(F)cc2)c2nc(C(=O)O)cc(N3CCN(C(C)(C)C)CC3)c12 [compound 788, 4-(4-tert-butylpiperazin-1-yl)-1-(4-fluorophenyl)-3-(propan-2-yl)-1H-pyrazolo[3,4-b]pyridine-6-carboxylic acid]	329.4%	1670 nM	115.7%	1670 nM
CC(C)c1nn(-c2ccc(F)cc2)c2nc(C(=O)O)cc(N3CCN(CC4CCCN(C)C4)CC3)c12 (centres unmarked) [compound 791, 1-(4-fluorophenyl)-4-{4-[(1-methylpiperidin-3-yl)methyl]piperazin-1-yl}-3-(propan-2-yl)-1H-pyrazolo[3,4-b]pyridine-6-carboxylic acid]	307.5%	1670 nM	79.95%	1670 nM
